Source: patent US11111217B2, “2-arylbenzimidazoles as Ppargc1a activators for treating neurodegenerative diseases” (The Board of Trustees of the Leland Stanford Junior …, priority 2018, dated 2021)
Where two headings read alike, the source gives them in different places.

What was measured:
[1] = Pharmacokinetic study (mouse), levels of API after prodrug dosing; assay type: in vivo; conditions: mice, 10 mg/kg p.o., 1 h, 2 h, 4 h; for brain levels of API (example 1 compound): brain at 0.5 h, LCMS (FIG. 2); for liver levels of API (example 1 compound): liver at 0.5 h, LCMS (FIG. 3); for plasma levels of API (example 1 compound): plasma at 0.5 h, LCMS (FIG. 1)
Experimental: Pharmacokinetic studies (mouse) were performed on the example 1, 6-P, 8-P, and 11-P compounds of the present invention. The example 1, 6-P, 8-P, and 11-P compounds were dosed in mice at 10 mg/kg p.o. (n=2). Plasma, brain, and liver were harvested at 0.5 h, 1 h, 2 h, and 4 h. The samples were analyzed by LCMS to determine levels of the example 1 compound, i.e., the active pharmaceutical ingredient (API) for prodrug examples 6-P, 8-P, and 11-P.

[2] = Microsome stability assay, mouse liver microsomes; assay type: in vitro ADME; conditions: pH 7.4, 1 μM test compound, NADPH 1 mM, 37° C., 0-40 mins, read-out: MLM t1/2
Experimental: (§1) Microsome Stability Assay Protocol
(§2) Human liver microsomes (Corning #452117 lot 38291) or Mouse liver microsomes (Corning #452701, lot #6328004) were separately combined at a final concentration of […] with KxPO4 pH 7.4 (100 mM), MgCl2 (10 mM), and test compound (1 μM) and pre-incubated (10 min, 37° C.). Next, NADPH (1 mM) was added to begin reactions (total volume 100 μL). At various time points (0, 10, 20, and 40 mins), reactions were quenched with Clem stop solution (100 μL, 625 ng/mL) (Cyprotex) in Acetonitrile. Samples were centrifuged at 4000 g for 20 mins, diluted (75 μL into 75 μL 0.1% formic acid in water), and analyzed by LC-MS/MS.

[3] = system: TNF-α production by BV2 cells or PBMC; test: Cellular assay to measure TNF-α inhibition (LPS-stimulated, ELISA); assay type: cell-based, murine (BV2) or human (PBMC); conditions: BV2 cells or PBMC (not specified), LPS 100 ng/ml over 24 hours, relative to DMSO vehicle; compound concentration not stated
Excerpt: Oxidative metabolism exerts an anti-inflammatory effect on myeloid cell phenotype (O'Neill L A, Front Immunol. 2014) and Ppargc1a can promote this energy metabolic pathway (Spiegelman BM, Novartis Found Symp. 2007). Thus, pharmacological activation of Ppargc1a would be expected to inhibit the inflammatory response of myeloid cells. This phenomenon can be measured in cultures by a TNF-α inhibition assay.
Cellular Assay Protocol to Measure TNF-α Inhibition
The murine myeloid cell line BV2 or human peripheral blood mononuclear cells (PBMC) are cultured in RPMI 1640 media (Cat #11875119, Gibco) supplemented with 10% fetal bovine serum and 1% L-glutamine 1% penicillin. These cells are then stimulated with 100 ng/ml of lipopolysaccharide (LPS, O111:B34, Cat # L2630, Sigma) over 24 hours. LPS stimulation results in the secretion of the inflammatory cytokine TNF-α by BV2 cells or PBMC, which can be quantified by ELISA in culture supernatant samples per manufacturer's protocol (Cat #558273 for BV2 and Cat #558299 for PBMC, BD Biosciences). To determine whether exampl compounds 1-78 inhibit TNF-α production by BV2 cells or PBMC, the cells were cultured in the presence of the compounds at different concentrations, and fold reduction in TNF-α production relative to TNF-α production by the same cells cultured in the presence of dimethylsulfoxide (as vehicle control) was determined.

[4] = Microsome stability assay, human liver microsomes; assay type: in vitro ADME; conditions: pH 7.4, 1 μM test compound, NADPH 1 mM, 37° C., 0-40 mins, read-out: HLM t1/2
Experimental: as §1, §2

in vitro = conditions: human, Caco-2, pH 7.4
Experimental: Caco-2 Permeability Assay Protocol
(§3) Caco-2 cells were maintained in DMEM in an atmosphere of 5% CO2. For transport experiments 5×10^5 cells/well of were seeded on polycarbonate filter inserts and allowed to grow and differentiate for 21±4 days before the cell monolayers were used for experiments. Apparent permeability coefficients were determined for A→B and B→A directions with and without the presence of elacridar as a transporter inhibitor. Up to three test items and reference compounds were dissolved in Hank's balanced salt solution at pH 7.4 to yield a final concentration of 10 μM.
(§4) The assays were performed in HBSS containing 25 mM HEPES (pH 7.4) at 37° C. Prior to the study, the monolayers were washed in prewarmed HBSS. At the start of the experiments prewarmed HBSS containing the test items was added to the donor side of the monolayer and HBSS without test items was added to the receiver side. Aliquots of the receiver side were taken over the 2 h incubation period; aliquots of the donor side were taken at 0 hand 2 h. Aliquots were diluted with an equal volume of methanol/water with 0.1% formic acid containing the internal standard. The mixture was analyzed by LC-MS/MS. The apparent permeability coefficients (Papp) were calculated using the formula: Papp=(dCrec/dt)/(A×C0,donor)]×106 with dCrev/dt being the change in concentration in the receiver compartment with time, C0,donor the concentration in the donor compartment at time 0, and A the area of the compartment with the cells.

Caco-2 cells [5] = conditions: human, Caco-2, 2 h, 10 μM, pH 7.4
Experimental: Caco-2 Permeability Assay Protocol
as §3, §4

Caco-2 cells [6] = test: Caco-2 permeability assay; conditions: 10 μM, HBSS pH 7.4, 37° C., 2 h; for Caco2 A → B: without elacridar
Experimental: Caco-2 Permeability Assay Protocol
as §3, §4

[7] = Caco-2 permeability assay; conditions: human, Caco-2, pH 7.4, with elacridar (concentration not stated)

| SMILES | brain levels of API (example 1 compound) [1] | liver levels of API (example 1 compound) [1] | plasma levels of API (example 1 compound) [1] | half-life at 1 μM [2] [min] | half-life at 1 μM [4] [min] | Caco2 B → A (Caco-2 cells [6]) [nm/s] | Caco2 A → B (Caco-2 cells [6]) [nm/s] | Papp A→B at 2 h, 10 μM [7] [×10⁻⁶ cm/s] | Caco2 A → B w/ elacridar (Caco-2 cells [6]; with elacridar as transporter inhibitor) | TNF α Inhibition [3] | Papp A→B at 2 h, 10 μM (in vitro) [×10⁻⁶ cm/s] | Caco2 B → A (Caco-2 cells [5]) [nm/s] |
| --- | --- | --- | --- | --- | --- | --- | --- | --- | --- | --- | --- | --- |
| CC(C)(C)c1ccc(-c2nc3ccccc3n2COC(=O)c2ccc(CN)cc2)cc1.Cl [Example 8-P, (4-(((2-(4-(tert-butyl)phenyl)-1H-benzo[d]imidazol-1-yl)methoxy)carbonyl)-phenyl)methylammonium hydrochloride] | measurable amounts | measurable amounts | measurable amounts | – | – | – | – | – | – | – | – | – |
| CC(C)(C)c1ccc(-c2nc3ccccc3n2COP(=O)([O-])[O-])cc1.[Na+].[Na+] [Example 11-P, Disodium ((2-(4-(tert-butyl)phenyl)-1H-benzo[d]imidazol-1-yl)methyl) phosphate] | measurable amounts | measurable amounts | measurable amounts | – | – | – | – | – | – | – | – | – |
| CC(C)(C)c1ccc(-c2nc3ccccc3n2COC(=O)CCC(=O)O)cc1 [Example 6-P, 4-((2-(4-(tert-Butyl)phenyl)-1H-benzo[d]imidazol-1-yl)methoxy)-4-oxobutanoic acid] | measurable amounts | measurable amounts | measurable amounts | – | – | – | – | – | – | – | – | – |
| CC(C)(C)c1ccc(-c2nc3ccccc3[nH]2)cc1 [Example 1, 2-(4-(tert-Butyl)phenyl)-1H-benzo[d]imidazole] | – | – | – | 16.7 | 14 | – | – | – | – | A (A = >80% inh.) | 0.659 | 31.5 |
| CC(C)(C)c1ccc(-c2nc3cc(C(F)(F)F)ccc3[nH]2)cc1 [Example 42, 2-(4-tert-Butylphenyl)-5-(trifluoromethyl)-1H-benzo[d]imidazole] | – | – | – | 110 | 83.8 | 1.2 | 0.878 | 0.0408 | – | A (A = >80% inh.) | – | – |

Second part, led by results:

| brain levels of API (example 1 compound) [1] | liver levels of API (example 1 compound) [1] | plasma levels of API (example 1 compound) [1] | half-life at 1 μM [2] [min] | half-life at 1 μM [4] [min] | Caco2 B → A (Caco-2 cells [6]) [nm/s] | Caco2 A → B (Caco-2 cells [6]) [nm/s] | Papp A→B at 2 h, 10 μM [7] [×10⁻⁶ cm/s] | Caco2 A → B w/ elacridar (Caco-2 cells [6]; with elacridar as transporter inhibitor) | SMILES | TNF α Inhibition [3] | Papp A→B at 2 h, 10 μM (in vitro) [×10⁻⁶ cm/s] | Caco2 B → A (Caco-2 cells [5]) [nm/s] |
| --- | --- | --- | --- | --- | --- | --- | --- | --- | --- | --- | --- | --- |
| – | – | – | 83.1 | 112 | 2.54 | – | 0.00126 | 0.792, nm/s | CC(C)(C)c1ccc(-c2nc3c(F)c(F)c(F)cc3[nH]2)cc1 [Example 64, 2-(4-tert-Butylphenyl)-4,5,6-trifluoro-1H-benzo[d]imidazole] | A (A = >80% inh.) | – | – |
| – | – | – | 46.7 | 99.2 | 8.42 | 11.1 | 0.13 | – | CC(C)(C)c1ccc(-c2nc3c(F)cc(F)cc3[nH]2)cc1 [Example 57, 2-(4-tert-Butylphenyl)-4,6-difluoro-1H-benzo[d]imidazole] | A (A = >80% inh.) | – | – |
| – | – | – | 21.4 | 20.6 | 9.94 | 4.27 | 0.0693 | – | CC(C)(C)c1ccc(-c2nc3c(F)c(F)ccc3[nH]2)cc1 [Example 55, 2-(4-tert-Butylphenyl)-4,5-difluoro-1H-benzo[d]imidazole] | A (A = >80% inh.) | – | – |
